Columns and labels:
H929 cells = assay: Cell viability assay (Cell TiterGlo); type: cell-based; settings: Cell TiterGlo luminescence
Procedure: The cell viability assay was performed using H929 cells. Cells were seeded in 96-well plates at 10,000 cells/well and, after overnight incubation, treated with compounds in a dose response of 3-fold dilutions from 10 μM to 0.005 μM ([…], 0.1% final DMSO concentration). After 24 hours at 37° C., cell viability was measured using Cell TiterGlo reagent (Promega) with a luminescence reader.

CDK9/Cyclin T1 = CDK9/Cyclin T1 (Homo sapiens (Human), UniProt P50750); assay: CDK9 enzyme assay (LANCE ULight TR-FRET kinase assay); type: biochemical; settings: 1000 μM ATP, 100 nM ULight MBP, kinase reaction 1 hour
Chain of CDK9/Cyclin T1 (P50750 whole entry): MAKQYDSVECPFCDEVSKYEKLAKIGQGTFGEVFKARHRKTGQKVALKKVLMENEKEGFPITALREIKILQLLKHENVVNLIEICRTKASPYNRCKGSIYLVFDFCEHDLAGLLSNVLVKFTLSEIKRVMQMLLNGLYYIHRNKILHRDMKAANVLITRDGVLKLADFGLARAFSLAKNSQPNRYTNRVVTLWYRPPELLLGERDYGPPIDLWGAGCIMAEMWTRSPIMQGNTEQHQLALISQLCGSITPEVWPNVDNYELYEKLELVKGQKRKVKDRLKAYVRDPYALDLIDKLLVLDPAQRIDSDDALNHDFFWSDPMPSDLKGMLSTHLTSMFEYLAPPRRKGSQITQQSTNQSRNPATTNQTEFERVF
Chain of CDK9/Cyclin T1 (O60563 whole entry partner): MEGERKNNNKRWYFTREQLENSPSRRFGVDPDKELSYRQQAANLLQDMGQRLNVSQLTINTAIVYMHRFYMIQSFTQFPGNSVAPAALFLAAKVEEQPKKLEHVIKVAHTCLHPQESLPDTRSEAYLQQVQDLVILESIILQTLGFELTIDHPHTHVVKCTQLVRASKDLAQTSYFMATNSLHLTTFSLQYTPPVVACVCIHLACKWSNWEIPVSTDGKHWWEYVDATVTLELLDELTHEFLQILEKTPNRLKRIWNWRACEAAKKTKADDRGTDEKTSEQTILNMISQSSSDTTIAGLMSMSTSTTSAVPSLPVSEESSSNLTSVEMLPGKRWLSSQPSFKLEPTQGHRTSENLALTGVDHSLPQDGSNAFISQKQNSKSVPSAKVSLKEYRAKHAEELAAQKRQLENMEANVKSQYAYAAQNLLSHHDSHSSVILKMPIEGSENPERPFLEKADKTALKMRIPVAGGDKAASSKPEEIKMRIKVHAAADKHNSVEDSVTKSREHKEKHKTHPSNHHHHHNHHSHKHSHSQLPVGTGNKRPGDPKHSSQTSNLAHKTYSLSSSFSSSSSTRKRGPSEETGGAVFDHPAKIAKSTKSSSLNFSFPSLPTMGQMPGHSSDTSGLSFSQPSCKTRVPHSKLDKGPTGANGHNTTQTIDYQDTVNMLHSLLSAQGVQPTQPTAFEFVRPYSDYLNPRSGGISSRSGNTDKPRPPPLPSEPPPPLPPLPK
Outline: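 Human CDK9/Cyclin T1 phosphorylating 100 nM ULight-MBP with 1000 μM ATP in HEPES/MgCl2 buffer, 1 h reaction. Stopped with 20 mM EDTA plus 0.5 nM Eu anti-phospho-MBP antibody, incubated 1 h, read by TR-FRET (ex 320 nm, em 615/665 nm).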

[1] = Homo sapiens, NCI-H929, 24 hours at 37° C.

SMILES	IC50 (H929 cells; [1])	IC50 (CDK9/Cyclin T1)	IC50 (H929 cells; 24 hours at 37° C.)
CN1Cc2c(C3=CCN(C4CCC(=CC(=O)O)CC4)CC3)[nH]c3nccc(c23)-c2cc(F)ccc21 (stereo not shown) [Example 177, {4-[4-(10-fluoro-7-methyl-6,7-dihydro-4H-3,4,7-triazadibenzo[cd,f]azulen-5-yl)-3,6-dihydropyridin-1(2H)-yl]cyclohexylidene}acetic acid]	120 nM	58 nM	–
CN1Cc2c(C3=CCN(CCS(=O)(=O)N(C)C)CC3)[nH]c3nccc(c23)-c2cc(F)ccc21 [Example 178, 2-[4-(10-fluoro-7-methyl-6,7-dihydro-4H-3,4,7-triazadibenzo[cd,f]azulen-5-yl)-3,6-dihydropyridin-1(2H)-yl]-N,N-dimethylethanesulfonamide]	40 nM	25 nM	–
CN1Cc2c(C3=CCN(CCS(N)(=O)=O)CC3)[nH]c3nccc(c23)-c2cc(F)ccc21 [Example 179, 2-[4-(10-fluoro-7-methyl-6,7-dihydro-4H-3,4,7-triazadibenzo[cd,f]azulen-5-yl)-3,6-dihydropyridin-1(2H)-yl]ethanesulfonamide]	64 nM	24 nM	–
CN1Cc2c(C3=CCN([C@H]4CC[C@H](CC(=O)O)CC4)CC3)[nH]c3ncc(F)c(c23)-c2ccccc21 [Example 180, {trans-4-[4-(1-fluoro-7-methyl-6,7-dihydro-4H-3,4,7-triazadibenzo[cd,f]azulen-5-yl)-3,6-dihydropyridin-1(2H)-yl]cyclohexyl}acetic acid]	11 nM	73 nM	–
CN1Cc2c(C3=CCN([C@H]4CC[C@H](C(=O)O)CC4)CC3)[nH]c3ncc(F)c(c23)-c2ccccc21 [Example 181, trans-4-[4-(1-fluoro-7-methyl-6,7-dihydro-4H-3,4,7-triazadibenzo[cd,f]azulen-5-yl)-3,6-dihydropyridin-1(2H)-yl]cyclohexanecarboxylic acid]	12 nM	63 nM	–
CN1Cc2c(C3=CCN([C@H]4CC[C@@H](CC(=O)O)CC4)CC3)[nH]c3ncc(F)c(c23)-c2ccccc21 [Example 182, {cis-4-[4-(1-fluoro-7-methyl-6,7-dihydro-4H-3,4,7-triazadibenzo[cd,f]azulen-5-yl)-3,6-dihydropyridin-1(2H)-yl]cyclohexyl}acetic acid]	10 nM	71 nM	–
CN1Cc2c(C3=CCN([C@H]4CC[C@@H](C(=O)O)CC4)CC3)[nH]c3ncc(F)c(c23)-c2ccccc21 [Example 183, cis-4-[4-(1-fluoro-7-methyl-6,7-dihydro-4H-3,4,7-triazadibenzo[cd,f]azulen-5-yl)-3,6-dihydropyridin-1(2H)-yl]cyclohexanecarboxylic acid]	14 nM	80 nM	–
CN1Cc2c(C3=CCCN(C4CCC(=CC(=O)O)CC4)CC3)[nH]c3nccc(c23)-c2cc(F)ccc21 (stereo not shown) [Example 184, {4-[4-(10-fluoro-7-methyl-6,7-dihydro-4H-3,4,7-triazadibenzo[cd,f]azulen-5-yl)-2,3,6,7-tetrahydro-1H-azepin-1-yl]cyclohexylidene}acetic acid]	190 nM	130 nM	–
CN1Cc2c(C3=CCN(C4CCC(C(C)(C)C(=O)O)CC4)CC3)[nH]c3nccc(c23)-c2cc(F)ccc21 (stereo not shown) [Example 185, 2-{4-[4-(10-fluoro-7-methyl-6,7-dihydro-4H-3,4,7-triazadibenzo[cd,f]azulen-5-yl)-3,6-dihydropyridin-1(2H)-yl]cyclohexyl}-2-methylpropanoic acid]	160 nM	130 nM	–
CC[C@H]1c2c(C3=CCN([C@H]4C[C@@H](C(=O)OC)C4)CC3)[nH]c3nccc(c23)-c2cc(F)ccc2N1C [Example 186, methyl cis-3-{4-[(6S)-6-ethyl-10-fluoro-7-methyl-6,7-dihydro-4H-3,4,7-triazadibenzo[cd,f]azulen-5-yl]-3,6-dihydropyridin-1(2H)-yl}cyclobutanecarboxylate]	13 nM	64 nM	–
CC[C@H]1c2c(C3=CCN([C@H]4C[C@@H](C(=O)O)C4)CC3)[nH]c3nccc(c23)-c2cc(F)ccc2N1C [Example 187, cis-3-{4-[(6S)-6-ethyl-10-fluoro-7-methyl-6,7-dihydro-4H-3,4,7-triazadibenzo[cd,f]azulen-5-yl]-3,6-dihydropyridin-1(2H)-yl}cyclobutanecarboxylic acid]	15 nM	110 nM	–
CN1CCc2c(C3=CCN([C@H]4C[C@@H](C(=O)O)C4)CC3)[nH]c3nccc(c23)-c2cc(F)ccc21 [Example 188, cis-3-[4-(8-fluoro-5-methyl-1,3,4,5-tetrahydro-1,5,12-triazabenzo[4,5]cycloocta[1,2,3-cd]inden-2-yl)-3,6-dihydropyridin-1(2H)-yl]cyclobutanecarboxylic acid]	–	150 nM	290 nM
CC[C@H]1c2c(C3=CCN([C@H]4C[C@H](C(=O)O)C4)CC3)[nH]c3nccc(c23)-c2cc(F)ccc2N1C [Example 189, trans-3-{4-[(6S)-6-ethyl-10-fluoro-7-methyl-6,7-dihydro-4H-3,4,7-triazadibenzo[cd,f]azulen-5-yl]-3,6-dihydropyridin-1(2H)-yl}cyclobutanecarboxylic acid]	6 nM	110 nM	–
CN1CCc2c(C3=CCN([C@H]4C[C@H](C(=O)O)C4)CC3)[nH]c3nccc(c23)-c2cc(F)ccc21 [Example 190, trans-3-[4-(8-fluoro-5-methyl-1,3,4,5-tetrahydro-1,5,12-triazabenzo[4,5]cycloocta[1,2,3-cd]inden-2-yl)-3,6-dihydropyridin-1(2H)-yl]cyclobutanecarboxylic acid]	–	160 nM	190 nM
CN1Cc2c(C3=CCN(C4CCC(C(C#N)C(=O)O)CC4)CC3)[nH]c3nccc(c23)-c2cc(F)ccc21 (stereo not shown) [Example 191, cyano{4-[4-(10-fluoro-7-methyl-6,7-dihydro-4H-3,4,7-triazadibenzo[cd,f]azulen-5-yl)-3,6-dihydropyridin-1(2H)-yl]cyclohexyl}acetic acid]	440 nM	88 nM	–
CN1Cc2c(C3=CCN(C4CC(CC(=O)O)C4)CC3)[nH]c3ncc(F)c(c23)-c2cc(F)ccc21 (stereo not shown) [Example 192, {3-[4-(1,10-difluoro-7-methyl-6,7-dihydro-4H-3,4,7-triazadibenzo[cd,f]azulen-5-yl)-3,6-dihydropyridin-1(2H)-yl]cyclobutyl}acetic acid]	27 nM	79 nM	–
CN1Cc2c(C3=CCN(C4CC(C(=O)O)C4)CC3)[nH]c3ncc(F)c(c23)-c2cc(F)ccc21 (stereo not shown) [Example 193, 3-[4-(1,10-difluoro-7-methyl-6,7-dihydro-4H-3,4,7-triazadibenzo[cd,f]azulen-5-yl)-3,6-dihydropyridin-1(2H)-yl]cyclobutanecarboxylic acid]	11 nM	76 nM	–

Source: patent US9328112B2, “Tetracyclic CDK9 kinase inhibitors” (AbbVie Inc., priority 2014, dated 2016)
